Assay results taken from patent publication US20250059198A1, “BRM DEGRADING COMPOUNDS AND ASSOCIATED METHODS OF USE” (Arvinas Operations, Inc., priority 2021, published 2025).

Molecular target: T1, BRM (Homo sapiens, UniProt P51531)
T1 construct: Western Blot Screen of BRM Degradation in SW1573 Cells; endogenous in cells; host or cells: SW1573 cells
Assay: BRM degradation (Dmax and DC50) in SW1573 cells, Western blot screen / In-Cell Western screen
Type: cell-based
Details: overnight (18-20 hours) treatment; for Dmax: read-out: Dmax (%)** (% degraded)
Summary of the method: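 SW1573 cells were treated with compound for 18–20 h (final 0.1% DMSO). BRM was quantified either by Western blot of RIPA lysates or by fixed-cell In-Cell Western (LI-COR, 800/680 nm), each normalised to alpha-tubulin, giving Dmax and DC50.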

T1 sequence (P51531 whole entry): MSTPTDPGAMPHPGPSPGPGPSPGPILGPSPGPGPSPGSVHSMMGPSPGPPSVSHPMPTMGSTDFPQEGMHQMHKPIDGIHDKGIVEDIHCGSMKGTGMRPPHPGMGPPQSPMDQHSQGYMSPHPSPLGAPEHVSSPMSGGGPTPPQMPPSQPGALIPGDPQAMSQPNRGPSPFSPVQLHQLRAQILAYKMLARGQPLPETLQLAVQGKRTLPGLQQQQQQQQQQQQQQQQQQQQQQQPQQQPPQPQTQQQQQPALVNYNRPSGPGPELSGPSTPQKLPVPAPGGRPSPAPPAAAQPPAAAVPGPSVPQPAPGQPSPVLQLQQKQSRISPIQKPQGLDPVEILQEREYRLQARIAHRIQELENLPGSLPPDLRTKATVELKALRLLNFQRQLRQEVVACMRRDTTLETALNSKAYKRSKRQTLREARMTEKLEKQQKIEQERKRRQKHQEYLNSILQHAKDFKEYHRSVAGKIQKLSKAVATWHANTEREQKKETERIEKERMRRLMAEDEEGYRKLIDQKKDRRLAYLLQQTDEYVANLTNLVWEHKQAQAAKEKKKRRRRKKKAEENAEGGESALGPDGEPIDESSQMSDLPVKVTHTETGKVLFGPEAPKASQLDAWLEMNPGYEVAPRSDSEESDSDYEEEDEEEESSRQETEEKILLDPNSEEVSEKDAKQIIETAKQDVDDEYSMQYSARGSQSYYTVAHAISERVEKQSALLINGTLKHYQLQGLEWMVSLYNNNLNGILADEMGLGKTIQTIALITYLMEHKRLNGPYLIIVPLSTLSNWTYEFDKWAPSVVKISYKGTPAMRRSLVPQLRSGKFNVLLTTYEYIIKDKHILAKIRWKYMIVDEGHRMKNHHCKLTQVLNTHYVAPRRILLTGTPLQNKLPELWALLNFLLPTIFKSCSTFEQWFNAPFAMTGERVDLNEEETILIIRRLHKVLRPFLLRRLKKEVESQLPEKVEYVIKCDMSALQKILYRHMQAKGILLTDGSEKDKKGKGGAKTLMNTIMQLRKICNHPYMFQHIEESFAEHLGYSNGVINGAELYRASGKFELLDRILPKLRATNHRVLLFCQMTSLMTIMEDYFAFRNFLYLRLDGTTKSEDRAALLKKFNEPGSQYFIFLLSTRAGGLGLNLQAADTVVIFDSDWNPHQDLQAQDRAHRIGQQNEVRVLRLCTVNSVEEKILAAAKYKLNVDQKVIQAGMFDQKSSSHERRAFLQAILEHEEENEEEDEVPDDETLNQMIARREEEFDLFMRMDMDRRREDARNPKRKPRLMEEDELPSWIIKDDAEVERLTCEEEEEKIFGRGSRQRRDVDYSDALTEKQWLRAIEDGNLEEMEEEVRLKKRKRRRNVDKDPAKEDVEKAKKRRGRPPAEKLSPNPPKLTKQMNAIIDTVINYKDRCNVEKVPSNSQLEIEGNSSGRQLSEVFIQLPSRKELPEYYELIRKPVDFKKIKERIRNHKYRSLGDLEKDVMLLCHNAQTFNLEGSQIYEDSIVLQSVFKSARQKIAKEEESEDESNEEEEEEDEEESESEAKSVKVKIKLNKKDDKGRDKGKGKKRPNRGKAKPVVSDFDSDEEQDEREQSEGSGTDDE

| Structure (SMILES) | DC50 [nM] | Dmax [%] |
| --- | --- | --- |
| CC(C)[C@@H](C(=O)N1C[C@H](O)C[C@H]1C(=O)N[C@@H](C)c1ccc(C#N)cc1)c1cc(OCCN2CCN(CCOc3cc(N4C5CCC4CN(c4cc(-c6ccccc6O)nnc4N)C5)ccn3)CC2)no1 [Compound 66, (2S,4R)-1-[(2R)-2-{3-[2-(4-{2-[(4-{3-[3-amino-6-(2-hydroxyphenyl)pyridazin-4-yl]-3,8-diazabicyclo[3.2.1]octan-8-yl}pyridin-2-yl)oxy]ethyl}piperazin-1-yl)ethoxy]-1,2-oxazol-5-yl}-3-methylbutanoyl]-N-[(1S)-1-(4-cyanophenyl)ethyl]-4-hydroxypyrrolidine-2-carboxamide] | 2.5 to 10 | > 75 |
| CC(C)[C@@H](C(=O)N1C[C@H](O)C[C@H]1C(=O)N[C@@H](C)c1ccc(C#N)cc1)c1cc(N2CCC(CN3CC[C@H](Oc4cc(N5C6CCC5CN(c5cc(-c7ccccc7O)nnc5N)C6)ccn4)C(F)(F)C3)CC2)no1 [Compound 146, (2S,4R)-1-[(2R)-2-[3-(4-{[(4S)-4-[(4-{3-[3-amino-6-(2-hydroxyphenyl)pyridazin-4-yl]-3,8-diazabicyclo[3.2.1]octan-8-yl}pyridin-2-yl)oxy]-3,3-difluoropiperidin-1-yl]methyl}piperidin-1-yl)-1,2-oxazol-5-yl]-3-methylbutanoyl]-N-[(1S)-1-(4-cyanophenyl)ethyl]-4-hydroxypyrrolidine-2-carboxamide] | 10 to 30 | > 75 |
| CC(C)[C@H](C(=O)N1C[C@H](O)C[C@H]1C(=O)N[C@@H](C)c1ccc(C#N)cc1)c1cc(O[C@H]2C[C@H](C(C)(C)N3CCC(O[C@H]4C[C@H](Oc5cc(N6C7CCC6CN(c6cc(-c8ccccc8O)nnc6N)C7)ccn5)C4)CC3)C2)no1 [Compound 93, (2S,4R)-N-[(1S)-1-(4-cyanophenyl)ethyl]-4-hydroxy-1-[(2S)-3-methyl-2-{3-[(1r,3r)-3-(2-{4-[(1r,3r)-3-[(4-{3-[3-amino-6-(2-hydroxyphenyl)pyridazin-4-yl]-3,8-diazabicyclo[3.2.1]octan-8-yl}pyridin-2-yl)oxy]cyclobutoxy]piperidin-1-yl}propan-2-yl)cyclobutoxy]-1,2-oxazol-5-yl}butanoyl]pyrrolidine-2-carboxamide] | ≥ 30 | – |
| CC(C)[C@@H](C(=O)N1C[C@H](O)C[C@H]1C(=O)N[C@@H](C)c1ccc(C#N)cc1)c1cc(N2CCC(CN3CCC(O[C@H]4C[C@H](Oc5cc(N6CC7CC(C6)N7c6cc(-c7ccccc7O)nnc6N)ccn5)C4)CC3)CC2)no1 [Compound 26, (2S,4R)-N-[(1S)-1-(4-cyanophenyl)ethyl]-4-hydroxy-1-[(2R)-3-methyl-2-{3-[4-({4-[(1r,3r)-3-[(4-{6-[3-amino-6-(2-hydroxyphenyl)pyridazin-4-yl]-3,6-diazabicyclo[3.1.1]heptan-3-yl}pyridin-2-yl)oxy]cyclobutoxy]piperidin-1-yl}methyl)piperidin-1-yl]-1,2-oxazol-5-yl}butanoyl]pyrrolidine-2-carboxamide] | 2.5 to 10 | > 75 |
| Cc1ncsc1-c1ccc([C@H](C)NC(=O)[C@@H]2C[C@@H](O)CN2C(=O)[C@@H](c2cc(N3CCC(CN4CCC(O[C@H]5C[C@H](N6CCC(F)(CN7C8CCC7CN(c7cc(-c9ccccc9O)nnc7N)C8)CC6)C5)CC4)CC3)no2)C(C)C)cc1 [Compound 27, (2S,4R)-4-hydroxy-N-[(1S)-1-[4-(4-methyl-1,3-thiazol-5-yl)phenyl]ethyl]-1-[(2R)-3-methyl-2-{3-[4-({4-[(1r,3r)-3-[4-({3-[3-amino-6-(2-hydroxyphenyl)pyridazin-4-yl]-3,8-diazabicyclo[3.2.1]octan-8-yl}methyl)-4-fluoropiperidin-1-yl]cyclobutoxy]piperidin-1-yl}methyl)piperidin-1-yl]-1,2-oxazol-5-yl}butanoyl]pyrrolidine-2-carboxamide] | < 2.5 | > 75 |
| Cc1ncsc1-c1ccc([C@H](C)NC(=O)[C@@H]2C[C@@H](O)CN2C(=O)[C@@H](c2cc(N3CCC(CN4CCC5(CC4)CC(CN4CCC(Oc6cc(N7C8CCC7CN(c7cc(-c9ccccc9O)nnc7N)C8)ccn6)CC4)C5)CC3)no2)C(C)C)cc1 [Compound 32, (2S,4R)-1-[(2R)-2-[3-(4-{[2-({4-[(4-{3-[3-amino-6-(2-hydroxyphenyl)pyridazin-4-yl]-3,8-diazabicyclo[3.2.1]octan-8-yl}pyridin-2-yl)oxy]piperidin-1-yl}methyl)-7-azaspiro[3.5]nonan-7-yl]methyl}piperidin-1-yl)-1,2-oxazol-5-yl]-3-methylbutanoyl]-4-hydroxy-N-[(1S)-1-[4-(4-methyl-1,3-thiazol-5-yl)phenyl]ethyl]pyrrolidine-2-carboxamide] | < 2.5 | > 75 |
| Cc1ncsc1-c1ccc([C@H](C)NC(=O)[C@@H]2C[C@@H](O)CN2C(=O)[C@@H](c2cc(N3CCN(C(=O)[C@H]4C[C@H](Oc5cc(N6C7CCC6CN(c6cc(-c8ccccc8O)nnc6N)C7)ccn5)C4)CC3)no2)C(C)C)cc1 [Compound 107, (2S,4R)-4-hydroxy-N-[(1S)-1-[4-(4-methyl-1,3-thiazol-5-yl)phenyl]ethyl]-1-[(2R)-3-methyl-2-(3-{4-[(1r,3r)-3-[(4-{3-[3-amino-6-(2-hydroxyphenyl)pyridazin-4-yl]-3,8-diazabicyclo[3.2.1]octan-8-yl}pyridin-2-yl)oxy]cyclobutanecarbonyl]piperazin-1-yl}-1,2-oxazol-5-yl)butanoyl]pyrrolidine-2-carboxamide] | ≥ 30 | – |
| Cc1ncsc1-c1ccc([C@H](C)NC(=O)[C@@H]2C[C@@H](O)CN2C(=O)[C@@H](c2cc(N3CCC(CN4CCC(OC(=O)N5CCN(c6cc(-c7ccccc7O)nnc6N)CC5)CC4)CC3)no2)C(C)C)cc1 [Compound 65, 1-[(1-{5-[(2R)-1-[(2S,4R)-4-hydroxy-2-{[(1S)-1-[4-(4-methyl-1,3-thiazol-5-yl)phenyl]ethyl]carbamoyl}pyrrolidin-1-yl]-3-methyl-1-oxobutan-2-yl]-1,2-oxazol-3-yl}piperidin-4-yl)methyl]piperidin-4-yl 4-[3-amino-6-(2-hydroxyphenyl)pyridazin-4-yl]piperazine-1-carboxylate] | < 2.5 | > 75 |
| Cc1ncsc1-c1ccc([C@H](C)NC(=O)[C@@H]2C[C@@H](O)CN2C(=O)[C@@H](c2cc(N3CCC(CN4CCC5(CC4)CC(N4CCN(CC6(O)CCN(c7cc(-c8ccccc8O)nnc7N)CC6)CC4)C5)CC3)no2)C(C)C)cc1 [Compound 122, (2S,4R)-1-[(2R)-2-{3-[4-({2-[4-({1-[3-amino-6-(2-hydroxyphenyl)pyridazin-4-yl]-4-hydroxypiperidin-4-yl}methyl)piperazin-1-yl]-7-azaspiro[3.5]nonan-7-yl}methyl)piperidin-1-yl]-1,2-oxazol-5-yl}-3-methylbutanoyl]-4-hydroxy-N-[(1S)-1-[4-(4-methyl-1,3-thiazol-5-yl)phenyl]ethyl]pyrrolidine-2-carboxamide] | < 2.5 | > 75 |

Further lines, with some results ahead:

| DC50 [nM] | Structure (SMILES) | Dmax [%] |
| --- | --- | --- |
| < 2.5 | Cc1ncsc1-c1ccc([C@H](C)NC(=O)[C@@H]2C[C@@H](O)CN2C(=O)[C@@H](c2cc(N3CCC(CN4CCC5(CC4)CC(N4CCO[C@H](C(C)n6cc(-c7cc(-c8ccccc8O)nnc7N)cn6)C4)C5)CC3)no2)C(C)C)cc1 (stereo partly drawn) [Compound 88, (2S,4R)-1-[(2R)-2-{3-[4-({2-[(2S)-2-(1-(4-[3-amino-6-(2-hydroxyphenyl)pyridazin-4-yl]-1H-pyrazol-1-yl}ethyl)morpholin-4-yl]-7-azaspiro[3.5]nonan-7-yl}methyl)piperidin-1-yl]-1,2-oxazol-5-yl}-3-methylbutanoyl]-4-hydroxy-N-[(1S)-1-[4-(4-methyl-1,3-thiazol-5-yl)phenyl]ethyl]pyrrolidine-2-carboxamide] | > 75 |
| ≥ 30 | CC(C)[C@H](C(=O)N1C[C@H](O)C[C@H]1C(=O)N[C@@H](C)c1ccc(-c2ccnn2C)cc1)c1cc(N2CCC(OC3CCN(CC4CC(N5CCC([C@H](C)n6cc(C#Cc7cc(-c8ccccc8O)nnc7N)cn6)CC5)C4)CC3)CC2)no1 (stereo partly drawn) [Compound 111, (2S,4R)-1-[(2S)-2-{3-[4-({1-[(3-{4-[(1S)-1-(4-{2-[3-amino-6-(2-hydroxyphenyl)pyridazin-4-yl]ethynyl}-1H-pyrazol-1-yl)ethyl]piperidin-1-yl}cyclobutyl)methyl]piperidin-4-yl}oxy)piperidin-1-yl]-1,2-oxazol-5-yl}-3-methylbutanoyl]-4-hydroxy-N-[(1S)-1-[4-(1-methyl-1H-pyrazol-5-yl)phenyl]ethyl]pyrrolidine-2-carboxamide] | – |
| ≥ 30 | CC(C)[C@H](C(=O)N1C[C@H](O)C[C@H]1C(=O)N[C@@H](C)c1ccc(-c2ccnn2C)cc1)c1cc(N2CCC(CN3CCC(O[C@H]4C[C@H](OC(=O)N5CCN(c6cc(-c7ccccc7O)nnc6N)CC5)C4)CC3)CC2)no1 [Compound 114, (1r,3r)-3-({1-[(1-{5-[(2S)-1-[(2S,4R)-4-hydroxy-2-{[(1S)-1-[4-(1-methyl-1H-pyrazol-5-yl)phenyl]ethyl]carbamoyl}pyrrolidin-1-yl]-3-methyl-1-oxobutan-2-yl]-1,2-oxazol-3-yl}piperidin-4-yl)methyl]piperidin-4-yl}oxy)cyclobutyl 4-[3-amino-6-(2-hydroxyphenyl)pyridazin-4-yl]piperazine-1-carboxylate] | – |
| < 2.5 | CC(C)[C@@H](C(=O)N1C[C@H](O)C[C@H]1C(=O)N[C@@H](C)c1ccc(-c2ccnn2C)cc1)c1cc(N2CCC(CN3CCC(Oc4cc(N5CCN(c6cc(-c7ccccc7O)nnc6N)CC5)ccn4)CC3)CC2)no1 [Compound 41, (2S,4R)-1-[(2R)-2-{3-[4-({4-[(4-{4-[3-amino-6-(2-hydroxyphenyl)pyridazin-4-yl]piperazin-1-yl}pyridin-2-yl)oxy]piperidin-1-yl}methyl)piperidin-1-yl]-1,2-oxazol-5-yl}-3-methylbutanoyl]-4-hydroxy-N-[(1S)-1-[4-(1-methyl-1H-pyrazol-5-yl)phenyl]ethyl]pyrrolidine-2-carboxamide] | > 75 |
